In publication PMC9375521 (Protein Science : A Publication of the Protein Society, 2022):

Molecular target: SARS‐CoV‐2 nsp10–nsp16 complex (Severe acute respiratory syndrome coronavirus 2, UniProt P0DTD1)
Experiment: nsp10–nsp16 radiometric MTase assay, IC50 determination
Assay type: biochemical

Nc1ncnc2c1ncn2[C@@H]1O[C@H](CSCC[C@H](N)C(=O)O)[C@@H](O)[C@H]1O [SAH, S‐adenosylhomocysteine]
IC50: 2.2 ± 0.2 µM | Hill slope (radiometric assay, mean ± SD, N = 3): 0.6 ± 0.1
